Data as given in patent publication US20250129430A1, “HIGH ATP-AFFINITY PROTEIN AS THERAPEUTIC TARGET FOR INTRACTABLE CANCER MOLECULAR SUBTYPES AND INHIBITOR THEREOF” (VeraVerse Co., Ltd., priority 2021, published 2025).

Columns and labels:
Test in all cases: Cell viability drug screen, 12-point dose-response AUC
Format in all cases: cell-based, human
YCC3 = YCC3 cells; 72 hours
Description: (§1) An FDA-approved small-molecule pharmacological compound (#L1300) and an anticancer compound for research (#L2000) were purchased from Selecckchem and a 10 mM solution was prepared in DMSO. A total of 1,345 compounds were tested the cell viability of the seven EMT gastric cancer cell lines.
(§2) Cells cultured for cell-based drug assay were inoculated into a 96-well white optical plate (Corning) at 5×10^3 cells per well. After 24 hours after inoculation, a 2.5 MJT (primary screen) or a half-log 12-serial diluent (secondary screen) of the pharmacological compound contained in DMSO is added to the cells with a robot using a BioMek FXp liquid processor (Beckman) to add to the cells at 50 mM. The final drug concentration in the 5 ns range and the DMSO specification control (0.5%) were calculated. The cells were then further incubated at 37° C. in a 5% CO2 incubator for 72 hours prior to measuring cell viability using the extra-GLO assay kit (Promega). The luminescent properties were measured after 15 min incubation at room temperature using a plate stacker equipped with a plate stacker. The normalized viability for the DMSO-based control was measured to generate a cell line-specific 12-point dose-response curve for each pharmacological compound, and then the area under the curve (AUC) was calculated using a trapezoidal method. […] The results of the repeated experiments were averaged to generate AUC values for each cell line for each compound.

SNU620 = SNU620 cells; 72 hours
Description: as §1, §2

SNU484 = SNU484 cells (SEM subtype); 72 hours
Description: as §1, §2

MKN74 = MKN74 cells; 72 hours
Description: as §1, §2

NCC20 = NCC20 cells; 72 hours
Description: as §1, §2

SNU601 = SNU601 cells; 72 hours
Description: as §1, §2

YCC2 = YCC2 cells; 72 hours
Description: as §1, §2

MKN28 = MKN28 cells; 72 hours
Description: as §1, §2

SNU719 = SNU719 cells; 72 hours
Description: as §1, §2

NCC19 = NCC19 cells; 72 hours
Description: as §1, §2

YCC11 = YCC11 cells (SEM subtype); 72 hours
Description: as §1, §2

MKN1 = MKN1 cells; 72 hours
Description: as §1, §2

SNU1967 = SNU1967 cells; 72 hours
Description: as §1, §2

SNU216 = SNU216 cells (non-SEM subtype); 72 hours
Description: as §1, §2

SNU668 = SNU668 cells (SEM subtype); 72 hours
Description: as §1, §2

NCC24 = NCC24 cells; 72 hours
Description: as §1, §2

Hs746T = Hs746T cells (SEM subtype); 72 hours
Description: as §1, §2

NCI_N87 = NCI_N87 cells; 72 hours
Description: as §1, §2

AGS = AGS cells (non-SEM subtype); 72 hours
Description: as §1, §2

SNU638 = SNU638 cells; 72 hours
Description: as §1, §2

NCC59 = NCC59 cells; 72 hours
Description: as §1, §2

MKN45 = MKN45 cells (non-SEM subtype); 72 hours
Description: as §1, §2

SNU1750 = SNU1750 cells (SEM subtype); 72 hours
Description: as §1, §2

OCUM1 = OCUM1 cells; 72 hours
Description: as §1, §2

SNU1 = SNU1 cells; 72 hours
Description: as §1, §2

KATO3 = KATO3 cells; 72 hours
Description: as §1, §2

SNU16 = SNU16 cells; 72 hours
Description: as §1, §2

SK4 = SK4 cells (SEM subtype); 72 hours
Description: as §1, §2

FU97 = test system: FU97; parameters: Average Area Under the Viability Curve (AUC), AUC norm value: scale not given here; conditions: FU97 cells; 72 hours
Description: Cells cultured for cell-based drug assay were inoculated into a 96-well white optical plate (Corning) at 5×10^3 cells per well. After 24 hours after inoculation, a 2.5 MJT (primary screen) or a half-log 12-serial diluent (secondary screen) of the pharmacological compound contained in DMSO is added to the cells with a robot using a BioMek FXp liquid processor (Beckman) to add to the cells at 50 mM. The final drug concentration in the 5 ns range and the DMSO specification control (0.5%) were calculated. The cells were then further incubated at 37° C. in a 5% CO2 incubator for 72 hours prior to measuring cell viability using the extra-GLO assay kit (Promega). The luminescent properties were measured after 15 min incubation at room temperature using a plate stacker equipped with a plate stacker. The normalized viability for the DMSO-based control was measured to generate a cell line-specific 12-point dose-response curve for each pharmacological compound, and then the area under the curve (AUC) was calculated using a trapezoidal method.

Row | SMILES | Average Area Under the Viability Curve (AUC), AUC norm value (YCC3) | Average Area Under the Viability Curve (AUC), AUC norm value (SNU620) | Average Area Under the Viability Curve (AUC), AUC norm value (SNU484) | Average Area Under the Viability Curve (AUC), AUC norm value (MKN74) | Average Area Under the Viability Curve (AUC), AUC norm value (NCC20) | Average Area Under the Viability Curve (AUC), AUC norm value (SNU601) | Average Area Under the Viability Curve (AUC), AUC norm value (YCC2) | Average Area Under the Viability Curve (AUC), AUC norm value (MKN28) | Average Area Under the Viability Curve (AUC), AUC norm value (SNU719) | Average Area Under the Viability Curve (AUC), AUC norm value (NCC19) | Average Area Under the Viability Curve (AUC), AUC norm value (YCC11) | Average Area Under the Viability Curve (AUC), AUC norm value (MKN1) | Average Area Under the Viability Curve (AUC), AUC norm value (SNU1967) | Average Area Under the Viability Curve (AUC), AUC norm value (SNU216) | Average Area Under the Viability Curve (AUC), AUC norm value (SNU668) | Average Area Under the Viability Curve (AUC), AUC norm value (NCC24) | Average Area Under the Viability Curve (AUC), AUC norm value (Hs746T) | Average Area Under the Viability Curve (AUC), AUC norm value (NCI_N87) | Average Area Under the Viability Curve (AUC), AUC norm value (AGS) | Average Area Under the Viability Curve (AUC), AUC norm value (SNU638) | further results
1 | O=C(/C=C/c1cccnc1)NCCCCC1CCN(C(=O)c2ccccc2)CC1 [APO866 (FK866), APO866] | 1.423 | 0.3488 | −6.823 | −6.53 | 2.35 | 4.976 | 1.331 | −6.855 | 1.275 | −4.01 | −2.215 | −5.502 | −3.653 | −5.897 | −3.304 | −0.07585 | −4.382 | 0.8343 | 0 | 0.6032 | Average Area Under the Viability Curve (AUC), AUC norm value (NCC59): 0.7919; Average Area Under the Viability Curve (AUC), AUC norm value (MKN45): 0.6191; Average Area Under the Viability Curve (AUC), AUC norm value (SNU1750): −3.767; Average Area Under the Viability Curve (AUC), AUC norm value (OCUM1): 0.949; Average Area Under the Viability Curve (AUC), AUC norm value (SNU1): 0.9726; Average Area Under the Viability Curve (AUC), AUC norm value (KATO3): 1.553; Average Area Under the Viability Curve (AUC), AUC norm value (SNU16): −4.562; Average Area Under the Viability Curve (AUC), AUC norm value (SK4): 0.7403; Average Area Under the Viability Curve (AUC), AUC norm value (FU97): −3.149
2 | O=C(Nc1c[nH]nc1-c1nc2ccc(CN3CCOCC3)cc2[nH]1)NC1CC1 [AT9283] | 0.6619 | −4.059 | −1.872 | 0.4728 | −2.941 | 1.648 | 0.07527 | −1.903 | 3.019 | 2.247 | −1.467 | −2.315 | −0.1244 | 0.5323 | 0.6968 | −0.6909 | 0.9084 | 0.1418 | −0.9303 | −0.01142 | Average Area Under the Viability Curve (AUC), AUC norm value (NCC59): 0.5882; Average Area Under the Viability Curve (AUC), AUC norm value (MKN45): −0.1996; Average Area Under the Viability Curve (AUC), AUC norm value (SNU1750): −1.7502; Average Area Under the Viability Curve (AUC), AUC norm value (OCUM1): 0; Average Area Under the Viability Curve (AUC), AUC norm value (SNU1): −3.743; Average Area Under the Viability Curve (AUC), AUC norm value (KATO3): 0.5115; Average Area Under the Viability Curve (AUC), AUC norm value (SNU16): −3.809; Average Area Under the Viability Curve (AUC), AUC norm value (SK4): −0.4441
3 | Cc1ccc(C(=O)N(CCCN)[C@@H](c2nc3cc(Cl)ccc3c(=O)n2Cc2ccccc2)C(C)C)cc1 [Ispinesib (SB-715992), Ispinesib] | 2.007 | −1.255 | −0.9509 | 0 | −0.9939 | −1.371 | 0.7987 | −1.956 | 2.542 | 1.111 | −1.381 | −1.178 | 1.562 | 1.801 | 0.1001 | −0.8348 | 1.046 | −0.0052 | −2.131 | −0.203 | Average Area Under the Viability Curve (AUC), AUC norm value (NCC59): 2.6543; Average Area Under the Viability Curve (AUC), AUC norm value (MKN45): 1.833; Average Area Under the Viability Curve (AUC), AUC norm value (SNU1750): 0.2265; Average Area Under the Viability Curve (AUC), AUC norm value (OCUM1): 1.297; Average Area Under the Viability Curve (AUC), AUC norm value (SNU1): −1.68; Average Area Under the Viability Curve (AUC), AUC norm value (KATO3): 2.999; Average Area Under the Viability Curve (AUC), AUC norm value (SNU16): −1.935; Average Area Under the Viability Curve (AUC), AUC norm value (SK4): −0.8267
